The record followed here is patent US20070293484A1, “Thiophene Heteroaryl Amines” (SUGEN, INC., priority 2004, published 2007).

Experiment [1] addresses T1, GST-Flk1 (Mus musculus, UniProt P35918).
T1 construct: GST-Flk1cd purified from sf9 recombinant baculovirus transformation (SUGEN, Inc.); host or cells: Sf9 insect cells (recombinant baculovirus)
The experiment can be described thus: GST-FLK-1 bioassay (ELISA, tyrosine kinase activity on poly(glu,tyr)). Format: biochemical. The method, then: The assays described herein are performed in an ELISA (Enzyme-Linked Immunosorbent Sandwich Assay) format (Voller, et al., 1980, “Enzyme-Linked Immunosorbent Assay,” Manual of Clinical Immunology, 2d ed., Rose and Friedman, Am. Soc. Of Microbiology, Washington, D.C., pp. 359-371). The general procedure is as follows: a compound is introduced to cells expressing the test kinase, either naturally or recombinantly, for a selected period of time after which, if the test kinase is a receptor, a ligand known to activate the receptor is added. The cells are lysed and the lysate is transferred to the wells of an ELISA plate previously coated with a specific antibody recognizing the substrate of the enzymatic phosphorylation reaction. Non-substrate components of the cell lysate are washed away and the amount of phosphorylation on the substrate is detected with an antibody specifically recognizing phosphotyrosine compared with control cells that were not contacted with a test compound.
This assay analyzes the tyrosine kinase activity of GST-Flk1 on poly(glu,tyr) peptides.
• 1. Corning 96-well ELISA plates (Corning Catalog No. 5805-96). • 2. poly(glu,tyr) 4:1, lyophilizate (Sigma Catalog #P0275). • 3. Preparation of poly(glu,tyr)(pEY) coated assay plates: Coat 2 ug/well of poly(glu,tyr)(pEY) in 100 μL PBS, hold at room temperature for 2 hours or at 4° C. overnight. Cover plates well to prevent evaporation. • 4. PBS Buffer: for 1 L, mix 0.2 g KH2PO4, 1.15 g Na2HPO4, 0.2 g KCl and 8 g NaCl in approx. 900 ml dH2O. When all reagents have dissolved, adjust the pH to 7.2 with HCl. Bring total volume to 1 L with dH2O. • 5. PBST Buffer: to 1 L of PBS Buffer, add 1.0 ml Tween-20. • 6. TBB—Blocking Buffer: for 1 L, mix 1.21 g TRIS, 8.77 g NaCl, 1 ml TWEEN-20 in approximately 900 ml dH2O. Adjust pH to 7.2 with HCl. Add 10 g BSA, stir to dissolve. Bring total volume to 1 L with dH2O. Filter to remove particulate matter. • 7. 1% BSA in PBS: To make a 1× working solution, add 10 g BSA to approx. 990 ml PBS buffer, stir to dissolve. Adjust total volume to 1 L with PBS buffer, filter to remove particulate matter. • 8. 50 mM Hepes pH 7.5. • 9. GST-Flk1cd purified from sf9 recombinant baculovirus transformation (SUGEN, Inc.). • 10. 4% DMSO in dH2O. • 11. 10 mMATP in dH2O. • 12. 40 mM MnCl2 • 13. Kinase Dilution Buffer (KDB): mix 10 ml Hepes (pH 7.5), 1 ml 5M NaCl, 40 μL 100 mM sodium orthovanadate and 0.4 ml of 5% BSA in dH2O with 88.56 ml dH2O. • 14. NUNC 96-well V bottom polypropylene plates, Applied Scientific Catalog #AS-72092 • 15. EDTA: mix 14.12 g ethylenediaminetetraacetic acid (EDTA) to approx. 70 ml dH2O. Add 10 N NaOH until EDTA dissolves. Adjust pH to 8.0. Adjust total volume to 100 ml with dH2O. • 16. 1^0 Antibody Dilution Buffer: mix 10 ml of 5% BSA in PBS buffer with 89.5 ml TBST. • 17. Anti-phosphotyrosine monoclonal antibody conjugated to horseradish peroxidase (PY99 HRP, Santa Cruz Biotech). • 18. 2,2′-Azinobis(3-ethylbenzthiazoline-6-sulfonic acid (ABTS, Moss, Cat. No. ABST). • 19. 10% SDS. Procedure: • 1. Coat Corning 96-well ELISA plates with 2 μg of polyEY peptide in sterile PBS as described in step 3 of Materials and Reagents. • 2. Remove unbound liquid from wells by inverting plate. Wash once with TBST. Pat the plate on a paper towel to remove excess liquid. • 3. Add 100 μl of 1% BSA in PBS to each well. Incubate, with shaking, for 1 hr. at room temperature. • 4. Repeat step 2. • 5. Soak wells with 50 mM HEPES (pH7.5) (150 μl/well). • 6. Dilute test compound with dH2O/4% DMSO to 4 times the desired final assay concentration in 96-well polypropylene plates. • 7. Add 25 μl diluted test compound to ELISA plate. In control wells, place 25 μl of dH2O/4% DMSO. • 8. Add 25 μl of 40 mM MnCl2 with 4×ATP (2 μM) to each well. • 9. Add 25 μl 0.5M EDTA to negative control wells. • 10. Dilute GST-Flk1 to 0.005 μg (5 ng)/well with KDB. • 11. Add 50 μl of diluted enzyme to each well. • 12. Incubate, with shaking, for 15 minutes at room temperature. • 13. […]
On the technique in general: In an ELISA, binding on a coated surface is turned into a signal by an enzyme label.

Experiment [2] addresses T2, PDGFR (Homo sapiens, UniProt P09619).
T2 construct: SUGEN, Inc; host or cells: NIH 3T3 cell lysate; receptor captured on plate with monoclonal anti-PDGFR antibody 28D4C10
The experiment is described as follows: PDGFR bioassay (ELISA, in vitro kinase activity). Format: biochemical. The note with it: PDGFR-β expressing NIH 3T3 cell lysate; read-out: IC50 (μM) PDGF-R.

One may read the IC50 as the concentration at which inhibition is half-maximal.

T1 sequence (P35918 784-1345 limits assumed): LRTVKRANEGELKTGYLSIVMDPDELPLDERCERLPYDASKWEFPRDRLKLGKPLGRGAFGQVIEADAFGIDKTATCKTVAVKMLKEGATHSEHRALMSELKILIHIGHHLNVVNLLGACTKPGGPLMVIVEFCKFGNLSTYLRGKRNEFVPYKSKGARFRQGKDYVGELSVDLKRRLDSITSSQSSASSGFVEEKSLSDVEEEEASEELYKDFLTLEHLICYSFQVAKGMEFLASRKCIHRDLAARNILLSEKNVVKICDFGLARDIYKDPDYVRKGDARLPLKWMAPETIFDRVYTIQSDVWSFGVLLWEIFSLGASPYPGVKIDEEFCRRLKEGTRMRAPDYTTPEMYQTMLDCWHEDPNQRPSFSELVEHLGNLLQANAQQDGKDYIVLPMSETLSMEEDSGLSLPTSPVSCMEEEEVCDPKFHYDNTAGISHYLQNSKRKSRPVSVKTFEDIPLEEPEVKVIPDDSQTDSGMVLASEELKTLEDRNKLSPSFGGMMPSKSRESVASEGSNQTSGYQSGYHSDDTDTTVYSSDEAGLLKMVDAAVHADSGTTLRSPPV
T2 sequence (P09619 33-1106, species assumed): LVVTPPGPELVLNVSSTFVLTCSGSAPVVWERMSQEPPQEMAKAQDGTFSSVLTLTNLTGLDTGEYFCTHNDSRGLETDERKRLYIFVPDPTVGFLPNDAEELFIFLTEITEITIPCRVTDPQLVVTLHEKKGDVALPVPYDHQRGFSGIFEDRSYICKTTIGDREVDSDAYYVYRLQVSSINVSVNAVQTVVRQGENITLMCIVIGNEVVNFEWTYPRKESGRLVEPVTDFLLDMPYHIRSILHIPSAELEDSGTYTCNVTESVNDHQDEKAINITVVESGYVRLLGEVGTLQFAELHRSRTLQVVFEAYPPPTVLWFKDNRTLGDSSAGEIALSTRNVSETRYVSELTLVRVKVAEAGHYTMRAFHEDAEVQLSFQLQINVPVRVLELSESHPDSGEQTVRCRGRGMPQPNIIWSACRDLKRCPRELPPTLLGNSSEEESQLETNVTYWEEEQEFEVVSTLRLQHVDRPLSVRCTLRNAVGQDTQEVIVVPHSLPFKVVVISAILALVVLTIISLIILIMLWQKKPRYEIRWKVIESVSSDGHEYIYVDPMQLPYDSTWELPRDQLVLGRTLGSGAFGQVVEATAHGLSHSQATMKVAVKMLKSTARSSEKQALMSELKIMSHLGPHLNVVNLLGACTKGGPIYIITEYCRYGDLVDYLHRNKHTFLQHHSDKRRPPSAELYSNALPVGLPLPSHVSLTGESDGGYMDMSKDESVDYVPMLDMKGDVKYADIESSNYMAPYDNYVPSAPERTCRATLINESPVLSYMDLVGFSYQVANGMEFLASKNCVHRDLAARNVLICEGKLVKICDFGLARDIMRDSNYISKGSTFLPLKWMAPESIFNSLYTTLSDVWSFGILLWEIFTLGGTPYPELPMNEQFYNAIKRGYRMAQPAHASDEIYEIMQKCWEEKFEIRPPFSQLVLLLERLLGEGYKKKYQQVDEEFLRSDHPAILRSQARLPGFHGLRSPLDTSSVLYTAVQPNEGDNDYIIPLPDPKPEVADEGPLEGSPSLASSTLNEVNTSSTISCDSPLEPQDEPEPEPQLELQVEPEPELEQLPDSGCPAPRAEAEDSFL

As to `O=C(CN1CCCC1)Nc1ccc(Nc2ncc(-c3ccsc3)cn2)cc1` [Example 29, 2-pyrrolidin-1-yl-N-{4-[(5-thien-3-ylpyrimidin-2-yl)amino]phenyl}acetamide], the values for the half-maximal inhibitory concentration (IC50) in experiment [1] and in experiment [2] were 4 µM and 0.43 µM, respectively.
In the same order, the values of `O=C(Nc1ccc(Nc2ncc(-c3ccsc3)cn2)cc1)N1CCC(N2CCCC2)CC1` [Example 30, 4-pyrrolidin-1-yl-N-{4-[(5-thien-3-ylpyrimidin-2-yl)amino]phenyl}piperidine-1-carboxamide] are 6.2 µM and 0.5 µM.
In the same order, the values of `O=C(NCCN1CCOCC1)Nc1ccc(Nc2ncc(-c3ccsc3)cn2)cc1` [Example 31, N-(2-morpholin-4-ylethyl)-N′-{4-[(5-thien-3-ylpyrimidin-2-yl)amino]phenyl}urea] are 5.2 µM and 0.78 µM.
The matching figures for `CCN(CC)CCNC(=O)Nc1ccc(Nc2ncc(-c3ccsc3)cn2)cc1` [Example 32, N-[2-(diethylamino)ethyl]-N′-{4-[(5-thien-3-ylpyrimidin-2-yl)amino]phenyl}urea]: 5.7 µM and 0.53 µM.
Regarding `O=C(Nc1ccc(Nc2ncc(-c3ccsc3)cn2)cc1)N1CCCC1CN1CCCC1` (stereo not shown) [Example 33, 2-(pyrrolidin-1-ylmethyl)-N-{4-[(5-thien-3-ylpyrimidin-2-yl)amino]phenyl}pyrrolidine-1-carboxamide], the IC50 is 4.55 µM in experiment [1] and 0.66 µM in experiment [2].
In the same order, the values of `O=C(Nc1ccc(Nc2ncc(-c3ccsc3)cn2)cc1)N1CCOCC1` [Example 34, N-{4-[(5-thien-3-ylpyrimidin-2-yl)amino]phenyl}morpholine-4-carboxamide] are 4.7 µM and 1 µM.
In the same order, the values of `CN1CCN(C(=O)Nc2ccc(Nc3ncc(-c4ccsc4)cn3)cc2)CC1` [Example 35, 4-methyl-N-{4-[(5-thien-3-ylpyrimidin-2-yl)amino]phenyl}piperazine-1-carboxamide] are 5.4 µM and 0.47 µM.
In the same order, the values of `CC(=O)Nc1cccc(Nc2ncc(-c3ccsc3)cn2)c1` [Example 36, N-{3-[(5-thien-3-ylpyrimidin-2-yl)amino]phenyl}acetamide] are 3.5 µM and 0.66 µM.
On to `CC(C)Nc1cccc(Nc2ncc(-c3ccsc3)cn2)c1` [Example 37, N-isopropyl-N′-(5-thien-3-ylpyrimidin-2-yl)benzene-1,3-diamine], for which the half-inhibitory concentration (IC50) in experiment [1] turned out to be 3.7 µM; in experiment [2] it was 0.56 µM.
In the same order, the values of `CCN(CC)c1cccc(Nc2ncc(-c3ccsc3)cn2)c1` [Example 38, N,N-diethyl-N′-(5-thien-3-ylpyrimidin-2-yl)benzene-1,3-diamine] are 3 µM and 1.8 µM.
In the same order, the values of `c1cc(Nc2ncc(-c3ccsc3)cn2)cc(N2CCOCC2)c1` [Example 39, N-(3-morpholin-4-ylphenyl)-5-thien-3-ylpyrimidin-2-amine] are 2 µM and 0.15 µM.
The matching figures for `Cc1ccc(Nc2ncc(-c3ccsc3)cn2)cc1NC(=O)c1ccc(CN2CCN(C)CC2)cc1` [Example 40, 4-(4-methyl-piperazin-1-ylmethyl)-N-[2-methyl-5-(5-thiophen-3-yl-pyrimidin-2-ylamino)-phenyl]-benzamide]: 10 µM and 2.6 µM.
As to `CCN(CC)CC(=O)Nc1cccc(Nc2cnc(-c3ccsc3)cn2)c1` [Example 41, N-(3-(5-(thiophen-3-yl)pyrazin-2-ylamino)phenyl)-2-(diethylamino)acetamide], the IC50 in experiment [1] and in experiment [2] was over 20 µM throughout.
`O=C(CN1CCOCC1)Nc1cccc(Nc2cnc(-c3ccsc3)cn2)c1` [Example 42, 2-morpholin-4-yl-N-{3-[(5-thien-3-ylpyrazin-2-yl)amino]phenyl}acetamide]: the IC50 in experiment [1] and in experiment [2] was over 20 µM throughout.
Take `O=C(CN1CCCC1CN1CCCC1)Nc1cccc(Nc2ncc(-c3ccsc3)cn2)c1` (stereo not shown) [Example 47, N-(3-(5-(thiophen-3-yl)pyrimidin-2-ylamino)phenyl)-2-(2-((pyrrolidin-1-yl)methyl)pyrrolidin-1-yl)acetamide]: the IC50 in experiment [1] was 2.3 µM; in experiment [2], 0.18 µM.
For `O=C(Nc1cccc(Nc2ncc(-c3ccsc3)cn2)c1)N1CCCC1CN1CCCC1` (stereo not shown) [Example 48], the figures for the half-inhibitory concentration (IC50) in experiment [1] and in experiment [2] were 3.5 µM and 0.21 µM, respectively.
Take `O=C(NCCN1CCOCC1)Nc1cccc(Nc2ncc(-c3ccsc3)cn2)c1` [Example 49]: the half-maximal inhibitory concentration (IC50) is 1.9 µM in experiment [1] and 0.14 µM in experiment [2].
The matching figures for `CCN(CC)CCNC(=O)Nc1cccc(Nc2ncc(-c3ccsc3)cn2)c1` [Example 50]: 1.7 µM and 0.16 µM.
The matching figures for `O=C(NCC(O)CN1CCOCC1)Nc1cccc(Nc2ncc(-c3ccsc3)cn2)c1` (stereo not shown) [Example 51, 1-(2-hydroxy-3-morpholin-4-yl-propyl)-3-[3-(5-thiophen-3-yl-pyrimidin-2-ylamino)-phenyl]-urea]: 2 µM and 0.12 µM.
Turning to `O=C(NCCN1CCS(=O)(=O)CC1)Nc1cccc(Nc2ncc(-c3ccsc3)cn2)c1` [Example 52, 1-[2-(1,1-dioxo-1λ^6-thiomorpholin-4-yl)ethyl]-3-[3-(5-thiophen-3-yl-pyrimidin-2-ylamino)-phenyl]-urea], the 50% inhibitory concentration (IC50) in experiment [1] was determined as 1.6 µM; in experiment [2], 0.36 µM.
The matching figures for `CN1CCN(CCNC(=O)Nc2cccc(Nc3ncc(-c4ccsc4)cn3)c2)CC1` [Example 53, 1-[2-(4-methyl-piperazin-1-yl)-ethyl]-3-[3-(5-thiophen-3-yl-pyrimidin-2-ylamino)-phenyl]-urea]: 2.3 µM and 0.22 µM.
The matching figures for `O=C(Nc1cccc(Nc2ncc(-c3ccsc3)cn2)c1)N1CCC(N2CCCC2)CC1` [Example 54, 4-pyrrolidin-1-yl-piperidine-1-carboxylic acid [3-(5-thiophen-3-yl-pyrimidin-2-ylamino)-phenyl]-amide]: 2.3 µM and 0.18 µM.
In the same order, the values of `O=C(CN1CCC(N2CCCC2)CC1)Nc1cccc(Nc2ncc(-c3ccsc3)cn2)c1` [Example 55, 2-(4-pyrrolidin-1-yl-piperidine-1-yl)-N-[3-(5-thiophen-3-yl-pyrimidin-2-ylamino)-phenyl]-acetamide] are 2.7 µM and 0.19 µM.
